Usually IC50 stands for the point on the concentration scale where inhibition reaches its midpoint.

This assay can be described thus: mitochondrial fusion inhibitors, confirmation, cell-based, chemical genetic, wild-type and mutant (AID 1361). Conditions: Cell-based mitochondrial fusion phenotype, imaging.
Setting [1] is: mutant cells, measured here: mutant cell line IC50.

The structures appear in SMILES notation. Active and inactive are the calls of the source. The rule behind the calls is not given here.

`Cc1ccc(Nc2nc(N)nc(CSc3nc4ccccc4s3)n2)cc1`: the concentration for half-maximal inhibition (IC50) (WT cells) was 14.2 µM and the half-inhibitory concentration (IC50) under setting [1] turned out to be 17 µM.

As to `CC(=O)c1ccc(-n2nnnc2SCC(=O)Nc2cccc(NC(=O)c3ccco3)c2)cc1`, the IC50 is > 25 µM (inactive) (WT cells) and above 25 µM under setting [1].

`COc1ccc(OC)c(-c2cc(C3CCN(c4cc(Cl)nc(N)n4)CC3)[nH]n2)c1`: the IC50 (WT cells) is > 25 µM (inactive) and the IC50 under setting [1] is above 25 µM.

As to `S=C(Nc1ccccc1Oc1ccccc1)Nc1cccc(Cl)c1Cl`, the IC50 is 12.6 µM (WT cells) and 22.4 µM under setting [1].

For `COc1ccccc1NC(=O)COC(=O)c1ccc([N+](=O)[O-])s1`, the IC50 (WT cells) was 6.09 µM and the IC50 under setting [1] was 19.4 µM.

As for `COC(=O)c1c(NC(=O)CN2CCC3(O)CCCCC3C2c2ccccc2OC)sc(C)c1C` (centres undefined), the IC50 reads like this: (WT cells) 10.4 µM; under setting [1], above 25 µM.

As to `Cc1ccc(NC(=S)N(Cc2cccc(Br)c2)CC2CCC(C(=O)O)CC2)cc1Cl` (centres undefined), the IC50 (WT cells) was 21.8 µM and the IC50 under setting [1] is above 25 µM.

In the case of `O=[N+]([O-])c1cccnc1N1CCC(c2cc(-c3ccc(Cl)cc3Cl)n[nH]2)CC1`, the IC50 is, setting by setting: (WT cells) 6.53 µM; under setting [1], above 25 µM.

For `COc1cc(OC)cc(C(=O)N2CCC(n3c(C)nc4cc(F)ccc43)CC2)c1`, the IC50 is > 25 µM (inactive) (WT cells) and above 25 µM under setting [1].

Turning to `C/C(=N\NC(=S)NCc1ccccc1)c1ccc2ccccc2c1OC(F)F`, the half-inhibitory concentration (IC50) (WT cells) was 7.44 µM and the IC50 under setting [1] worked out at 25 µM.

Regarding `O=C(CCc1ccccc1)NC(=S)Nc1cccc(Br)c1`, the half-inhibitory concentration (IC50) was 13.7 µM (WT cells) and 21.4 µM under setting [1].

Take `Cc1ccc(C2=CC(C)(c3ccc(C)cc3)Nc3nc(C(F)(F)F)nn32)cc1` (centres undefined): the concentration for half-maximal inhibition (IC50) is 7.63 µM (WT cells) and above 25 µM under setting [1].

For the molecule `CCN(c1ccc2c(c1)OCO2)S(=O)(=O)c1cc(Br)cc2c1N(C(=O)C1CC1)CC2`, the IC50 is 13.3 µM (WT cells) and above 25 µM under setting [1].

As for `Cc1ccc(C)c(NC(=O)c2ccccc2C(=O)c2ccccc2)c1`, the IC50 was 18.2 µM (WT cells) and above 25 µM under setting [1].

Turning to `COc1ccc(OC)c2c(N)c(C#N)c(C(F)(F)C(F)(F)F)nc12`, the IC50 (WT cells) was > 25 µM (inactive) and the half-maximal inhibitory concentration (IC50) under setting [1] was above 25 µM.

Take `O=C(CSCC(=O)OCn1nnc2ccccc2c1=O)Nc1ccc(Cl)cc1`: the IC50 by setting is: (WT cells) > 25 µM (inactive); under setting [1], above 25 µM.

In the case of `c1ccc2c(-c3c[nH]c4ccccc34)c3ccccc3nc2c1`, the 50% inhibitory concentration (IC50) (WT cells) is 15.3 µM and the IC50 under setting [1] was above 25 µM.

Turning to `CCOC(=O)c1oc2cccc(OCC(O)CNC(C)C)c2c1C` (centres undefined), the IC50 is > 25 µM (inactive) (WT cells) and above 25 µM under setting [1].

Regarding `OC(CC1CC12c1ccccc1-c1ncccc12)(c1ccccc1)c1ccccc1` (centres undefined), the half-inhibitory concentration (IC50) is 13.8 µM (WT cells) and above 25 µM under setting [1].

`Cc1ccc(-n2cc(-c3ccccc3)c3c(N4CCOCC4)ncnc32)cc1`: the IC50 is 21 µM (WT cells) and above 25 µM under setting [1].

In the case of `COc1ccccc1Nc1ncnc2nc[nH]c12`, the IC50 reads like this: (WT cells) > 25 µM (inactive); under setting [1], above 25 µM.

`O=c1c2ccccc2n(Cc2ccc(F)cc2)c(=O)n1C1CCCC1`: the IC50 runs as follows: (WT cells) 17 µM; under setting [1], above 25 µM.

On to `Cc1ccccc1CN(C)CC(=O)Nc1ccccc1-c1ccccc1`, for which the 50% inhibitory concentration (IC50) is, setting by setting: (WT cells) 16.3 µM; under setting [1], above 25 µM.

As for `Cc1ccc(NCC(=O)N/N=C/c2cc3ccccc3nc2Cl)cc1`, the IC50 reads like this: (WT cells) > 25 µM (inactive); under setting [1], above 25 µM.

For `Cc1cc(C)nc(Nc2ncc(O)n2-c2ccccc2)n1`, the IC50 is > 25 µM (inactive) (WT cells) and above 25 µM under setting [1].

Regarding `CCC(=O)Nc1ccc(Br)c(Cl)c1`, the IC50 by setting is: (WT cells) > 25 µM (inactive); under setting [1], above 25 µM.

In the case of `Cc1cc(N2CCN(C(c3ccccc3)c3ccc(Cl)cc3)CC2)n2ncnc2n1` (centres undefined), the IC50 (WT cells) is 13.7 µM and the IC50 under setting [1] is 22.3 µM.

Values taken from PubChem BioAssay AID1361 (SRMLSC, 2008).
